Measured values: PubChem BioAssay AID248 (DTP/NCI, 2004)
Where “and” joins values, the source holds several entries; their conditions need not be identical. Equal values may be shown once. Inconclusive results and toxic doses are left out. Square brackets hold non-standard residues; d marks the D form. Peptide text beside a SMILES is read from it. * marks the point of attachment. ξ: configuration not given here. Tos = Cc1ccc(S(=O)(=O)*)cc1; ξS = NC(CO)C(=O)O

Test system: L1210 leukemia ip in BDF1 mice, survival T/C
Experiment: NCI In Vivo Anticancer Drug Screen. Data for tumor model L1210 Leukemia (intraperitoneal) in B6D2F1 (BDF1) mice
Details: endpoint: mean survival time, higher = longer survival
In short: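 Mice bearing the transplanted tumor received compound or vehicle. Survival of the treated group was divided by that of the vehicle-treated control group to give the ratio.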

Structure (SMILES): Clc1ncnc2nc[nH]c12
- T/C (dose: 7.5 mg/kg/injection, schedule: Q01DX010 (ip), vehicle: saline): 93 % of control and 96 % of control
- T/C (dose: 9.37 mg/kg/injection, schedule: Q03HX008 (ip), vehicle: other): 103 % of control
- T/C (dose: 9.37 mg/kg/injection, schedule: Q03HX016 (ip), vehicle: other): 102 % of control
- T/C (dose: 9.37 mg/kg/injection, schedule: Q03HX024 (ip), vehicle: other): 112 % of control
- T/C (dose: 12.5 mg/kg/injection, schedule: Q03HX016 (ip), vehicle: other): 105 % of control
- T/C (dose: 12.5 mg/kg/injection, schedule: Q03HX024 (ip), vehicle: other): 104 % of control
- T/C (dose: 15.0 mg/kg/injection, schedule: Q01DX010 (ip), vehicle: saline): 93 % of control and 105 % of control
- T/C (dose: 18.75 mg/kg/injection, schedule: Q03HX008 (ip), vehicle: other): 111 % of control
- T/C (dose: 18.75 mg/kg/injection, schedule: Q03HX016 (ip), vehicle: other): 113 % of control
- T/C (dose: 18.75 mg/kg/injection, schedule: Q03HX024 (ip), vehicle: other): 110 % of control
- T/C (dose: 25.0 mg/kg/injection, schedule: Q01DX006 (iv), vehicle: other): 108 % of control
- T/C (dose: 25.0 mg/kg/injection, schedule: Q03HX016 (ip), vehicle: other): 112 % of control
- T/C (dose: 25.0 mg/kg/injection, schedule: Q03HX024 (ip), vehicle: other): 114 % of control
- T/C (dose: 30.0 mg/kg/injection, schedule: Q01DX010 (ip), vehicle: saline): 104 % of control and 107 % of control
- T/C (dose: 37.5 mg/kg/injection, schedule: Q03HX024 (ip), vehicle: other): 160 % of control
- T/C (dose: 50.0 mg/kg/injection, schedule: Q01DX001 (iv), vehicle: other): 98 % of control
- T/C (dose: 50.0 mg/kg/injection, schedule: Q01DX005 (ip), vehicle: other): 103 % of control
- T/C (dose: 50.0 mg/kg/injection, schedule: Q01DX006 (iv), vehicle: other): 108 % of control
- T/C (dose: 50.0 mg/kg/injection, schedule: Q01DX009 (ip), vehicle: other): 106 % of control and 109 % of control
- T/C (dose: 50.0 mg/kg/injection, schedule: Q01DX009 (oral), vehicle: other): 112 % of control
- T/C (dose: 50.0 mg/kg/injection, schedule: Q01DX009 (sc), vehicle: other): 114 % of control
- T/C (dose: 50.0 mg/kg/injection, schedule: Q01DX Z (ip), vehicle: carboxymethylcellulose (CMC)): 110 % of control
- T/C (dose: 60.0 mg/kg/injection, schedule: Q01DX010 (ip), vehicle: saline): 101 % of control and 103 % of control
- T/C (dose: 75.0 mg/kg/injection, schedule: Q01DX001 (sc), vehicle: other): 106 % of control
- T/C (dose: 75.0 mg/kg/injection, schedule: Q03HX016 (ip), vehicle: other): 163 % of control
- T/C (dose: 75.0 mg/kg/injection, schedule: Q03HX024 (ip), vehicle: other): 189 % of control
- T/C (dose: 75.0 mg/kg/injection, schedule: Q04DX003 (ip), vehicle: other): 106 % of control
- T/C (dose: 75.0 mg/kg/injection, schedule: Q08DX002 (ip), vehicle: other): 103 % of control
- T/C (dose: 100.0 mg/kg/injection, schedule: Q01DX001 (iv), vehicle: other): 101 % of control
- T/C (dose: 100.0 mg/kg/injection, schedule: Q01DX001 (oral), vehicle: other): 103 % of control
- T/C (dose: 100.0 mg/kg/injection, schedule: Q01DX005 (ip), vehicle: other): 118 % of control
- T/C (dose: 100.0 mg/kg/injection, schedule: Q01DX006 (iv), vehicle: other): 113 % of control
- T/C (dose: 100.0 mg/kg/injection, schedule: Q01DX009 (ip), vehicle: other): 121 % of control
- T/C (dose: 100.0 mg/kg/injection, schedule: Q01DX Z (ip), vehicle: carboxymethylcellulose (CMC)): 156 % of control
- T/C (dose: 100.0 mg/kg/injection, schedule: Q03HX016 (ip), vehicle: other): 163 % of control
- T/C (dose: 100.0 mg/kg/injection, schedule: Q03HX024 (ip), vehicle: other): 150 % of control
- T/C (dose: 100.0 mg/kg/injection, schedule: Q04DX003 (ip), vehicle: other): 115 % of control
- T/C (dose: 100.0 mg/kg/injection, schedule: Q08DX002 (ip), vehicle: other): 101 % of control
- T/C (dose: 146.0 mg/kg/injection, schedule: Q01DX015 (ip), vehicle: gum acacia): 152 % of control
- T/C (dose: 150.0 mg/kg/injection, schedule: Q01DX001 (sc), vehicle: other): 113 % of control
- T/C (dose: 150.0 mg/kg/injection, schedule: Q04DX003 (ip), vehicle: other): 114 % of control
- T/C (dose: 150.0 mg/kg/injection, schedule: Q08DX002 (ip), vehicle: other): 104 % of control
- T/C (dose: 200.0 mg/kg/injection, schedule: Q01DX001 (iv), vehicle: other): 106 % of control
- T/C (dose: 200.0 mg/kg/injection, schedule: Q01DX001 (oral), vehicle: other): 110 % of control
- T/C (dose: 200.0 mg/kg/injection, schedule: Q01DX009 (oral), vehicle: other): 152 % of control and 160 % of control
- T/C (dose: 200.0 mg/kg/injection, schedule: Q04DX003 (ip), vehicle: other): 109 % of control
- T/C (dose: 200.0 mg/kg/injection, schedule: Q08DX002 (ip), vehicle: other): 105 % of control
- T/C (dose: 218.0 mg/kg/injection, schedule: Q01DX015 (ip), vehicle: gum acacia): 150 % of control
- T/C (dose: 300.0 mg/kg/injection, schedule: Q01DX001 (sc), vehicle: other): 113 % of control
- T/C (dose: 300.0 mg/kg/injection, schedule: Q04DX003 (ip), vehicle: other): 113 % of control
- T/C (dose: 300.0 mg/kg/injection, schedule: Q08DX002 (ip), vehicle: other): 105 % of control
- T/C (dose: 327.0 mg/kg/injection, schedule: Q01DX015 (ip), vehicle: gum acacia): 152 % of control
- T/C (dose: 360.0 mg/kg/injection, schedule: Q01DX015 (ip), vehicle: gum acacia): 110 % of control
- T/C (dose: 400.0 mg/kg/injection, schedule: Q01DX009 (oral), vehicle: other): 158 % of control
- T/C (dose: 400.0 mg/kg/injection, schedule: Q01DX015 (ip), vehicle: other): 105 % of control
- T/C (dose: 400.0 mg/kg/injection, schedule: Q04DX003 (ip), vehicle: other): 115 % of control
- T/C (dose: 400.0 mg/kg/injection, schedule: Q08DX002 (ip), vehicle: other): 103 % of control
- T/C (dose: 490.0 mg/kg/injection, schedule: Q01DX015 (ip), vehicle: gum acacia): 90 % of control
- T/C (dose: 800.0 mg/kg/injection, schedule: Q04DX003 (ip), vehicle: other): 114 % of control

Structure (SMILES): COc1cc(OC)c(NC(=O)c2c(Br)c(Br)c(Br)c(Br)c2C(=O)O)cc1Cl
- T/C (dose: 100.0 mg/kg/injection, schedule: Q01DX009 (ip), vehicle: Klucel (hydroxypropylcellulose) (HPC)): 107 % of control
- T/C (dose: 200.0 mg/kg/injection, schedule: Q01DX009 (ip), vehicle: Klucel (hydroxypropylcellulose) (HPC)): 94 % of control
- T/C (dose: 400.0 mg/kg/injection, schedule: Q01DX009 (ip), vehicle: Klucel (hydroxypropylcellulose) (HPC)): 95 % of control

Structure (SMILES): Cc1ccc(S(=O)(=O)NC(CO)C(=O)NCC(=O)O)cc1 (stereo unspecified) (Tos-[ξS]-Gly-OH)
- T/C (dose: 100.0 mg/kg/injection, schedule: Q01DX009 (ip), vehicle: saline): 103 % of control
- T/C (dose: 200.0 mg/kg/injection, schedule: Q01DX009 (ip), vehicle: saline): 97 % of control
- T/C (dose: 400.0 mg/kg/injection, schedule: Q01DX009 (ip), vehicle: saline): 91 % of control

Structure (SMILES): OC12c3ccccc3C1(c1ccccn1)c1ccccc12 (stereo unspecified)
- T/C (dose: 100.0 mg/kg/injection, schedule: Q01DX009 (ip), vehicle: gum acacia): 98 % of control
- T/C (dose: 100.0 mg/kg/injection, schedule: Q04DX003 (ip), vehicle: gum acacia): 98 % of control
- T/C (dose: 200.0 mg/kg/injection, schedule: Q01DX009 (ip), vehicle: gum acacia): 96 % of control
- T/C (dose: 200.0 mg/kg/injection, schedule: Q04DX003 (ip), vehicle: gum acacia): 98 % of control
- T/C (dose: 400.0 mg/kg/injection, schedule: Q01DX009 (ip), vehicle: gum acacia): 100 % of control
- T/C (dose: 400.0 mg/kg/injection, schedule: Q04DX003 (ip), vehicle: gum acacia): 103 % of control

Structure (SMILES): CCOC(=O)CCc1c(C)c2cc(C(C)=O)c(O)cc2oc1=O
- T/C (dose: 100.0 mg/kg/injection, schedule: Q01DX001 (ip), vehicle: carboxymethylcellulose (CMC)): 89 % of control
- T/C (dose: 200.0 mg/kg/injection, schedule: Q01DX001 (ip), vehicle: carboxymethylcellulose (CMC)): 94 % of control
- T/C (dose: 400.0 mg/kg/injection, schedule: Q01DX001 (ip), vehicle: carboxymethylcellulose (CMC)): 103 % of control

Structure (SMILES): S=c1[nH]c2c(Cl)c(Cl)c(Cl)c(Cl)c2[nH]1
- T/C (dose: 100.0 mg/kg/injection, schedule: Q01DX009 (ip), vehicle: saline with Tween-80): 90 % of control
- T/C (dose: 100.0 mg/kg/injection, schedule: Q04DX003 (ip), vehicle: saline with Tween-80): 100 % of control
- T/C (dose: 200.0 mg/kg/injection, schedule: Q01DX009 (ip), vehicle: saline with Tween-80): 95 % of control
- T/C (dose: 200.0 mg/kg/injection, schedule: Q04DX003 (ip), vehicle: saline with Tween-80): 98 % of control
- T/C (dose: 400.0 mg/kg/injection, schedule: Q04DX003 (ip), vehicle: saline with Tween-80): 102 % of control

Structure (SMILES): CC12CCCCC1SC(F)(F)C2(F)F (stereo unspecified)
- T/C (dose: 12.5 mg/kg/injection, schedule: Q01DX009 (ip), vehicle: saline with Tween-80): 95 % of control
- T/C (dose: 25.0 mg/kg/injection, schedule: Q01DX009 (ip), vehicle: saline with Tween-80): 98 % of control
